Values after ≈ are worked out from the molar mass of the structure shown.
Legend:
[1] = Cytotoxicity against human SW480 cells after 3 days by MTT assay; format: functional, cell-based; conditions: SW480, 72 h
[2] = Cytotoxicity against human HepG2 cells after 3 days by MTT assay; format: functional, cell-based; conditions: HepG2, 72 h
[3] = Cytotoxicity against human MCF7 cells after 3 days by MTT assay; format: functional, cell-based; conditions: MCF7, 72 h
[4] = Cytotoxicity against mouse NIH/3T3 cells after 3 days by MTT assay; format: toxicity, NIH3T3
[5] = Cytotoxicity against mouse […] cells after 3 days by MTT assay; format: functional, cell-based; conditions: 72 h
[6] = Cytotoxicity against human KB cells after 3 days by MTT assay; format: functional, cell-based; conditions: 72 h
[7] = Cytotoxicity against human Lu1 cells after 3 days by MTT assay; format: functional, cell-based; conditions: Lu1, 72 h
Klebsiella pneumoniae = assay: Antibacterial activity against Klebsiella pneumoniae ATCC 4352 after 18 to 20 hrs by two-fold microbroth dilution method; format: functional
Staphylococcus aureus [8] = assay: Antibacterial activity against methicillin-resistant Staphylococcus aureus 198-1 after 18 to 20 hrs by two-fold microbroth dilution method; format: functional
Rattus norvegicus [9] = assay: (§1) Antioxidant activity in CCL4-intoxicated Wistar albino rat assessed as liver cytosolic catalase activity per mg protein at 100 mg/kg, ip administered for 7 consecutive days after DL-alpha-tocopherol acetate treatment followed by CCL4 dosing measured after 24 hrs by H2O2 based assay (reference value: 220.15 +/- 11.43 U); format: functional
Staphylococcus aureus [10] = assay: Antibacterial activity against methicillin-resistant Staphylococcus aureus 198-3 after 18 to 20 hrs by two-fold microbroth dilution method; format: functional
[11] = Antifungal activity against Saccharomyces cerevisiae SH20 after 72 hrs by agar dilution method; format: functional
Staphylococcus aureus [12] = assay: Antibacterial activity against methicillin-resistant Staphylococcus aureus 198-2 after 18 to 20 hrs by two-fold microbroth dilution method; format: functional
Staphylococcus aureus [13] = assay: Antibacterial activity against Staphylococcus aureus ATCC 11632 after 18 to 20 hrs by two-fold microbroth dilution method; format: functional
Rattus norvegicus [14] = assay: as §1, with “superoxide dismutase” for “catalase”, “xanthine” for “H2O2”, “5.27” for “220.15”, “0.22” for “11.43”; format: functional
Aspergillus niger = assay: Antifungal activity against Aspergillus niger 439 after 72 hrs by agar dilution method; format: functional; conditions: Aspergillus niger, 439, 72 h
[15] = tested on: Staphylococcus epidermidis; assay: Antibacterial activity against Staphylococcus epidermidis ATCC 12228 after 18 to 20 hrs by two-fold microbroth dilution method; format: functional
Bacillus subtilis = assay: Antibacterial activity against Bacillus subtilis ATCC 11774 after 18 to 20 hrs by two-fold microbroth dilution method; format: functional
Candida albicans = assay: Antifungal activity against Candida albicans ATCC 7754 after 72 hrs by agar dilution method; format: functional; conditions: ATCC 7754, 72 h
Rattus norvegicus [16] = assay: as §1, with “glutathione peroxidase” for “catalase”, “spectrophotometric analysis” for “assay”, “0.28” for “220.15”, “0.01” for “11.43”; format: functional
Escherichia coli = assay: Antibacterial activity against Escherichia coli ATCC 25922 after 18 to 20 hrs by two-fold microbroth dilution method; format: functional
Pseudomonas aeruginosa = assay: Antibacterial activity against Pseudomonas aeruginosa […] after 18 to 20 hrs by two-fold microbroth dilution method; format: functional
[17] = Antifungal activity against Fusarium oxysporum M42 after 72 hrs by agar dilution method; format: functional
Klebsiella aerogenes = assay: Antibacterial activity against Enterobacter aerogenes ATCC 13048 after 18 to 20 hrs by two-fold microbroth dilution method; format: functional

Structure (SMILES)	MIC (Klebsiella pneumoniae) [µM]	MIC (Staphylococcus aureus [8]) [µM]	Activity (Rattus norvegicus [9]) [U]	MIC (Staphylococcus aureus [10]) [µM]	MIC [11] [µM]	MIC (Staphylococcus aureus [12]) [µM]	MIC (Staphylococcus aureus [13]) [µM]	Activity (Rattus norvegicus [14]) [U]	MIC (Aspergillus niger) [µM]	MIC [15] [µM]	MIC (Bacillus subtilis) [µM]	MIC (Candida albicans) [µM]	Activity (Rattus norvegicus [16]) [U]	MIC (Escherichia coli) [µM]	MIC (Pseudomonas aeruginosa) [µM]	MIC [17] [µM]	MIC (Klebsiella aerogenes) [µM]	also measured
Cc1c2ccncc2c(C)c2c1[nH]c1ccccc12 [ELLIPTECINE]																		IC50 [1]: 750 nM; IC50 [2]: 1950 nM; IC50 [3]: 530 nM; IC50 at 3 days [4]: 320 nM; IC50 [5]: 1270 nM; IC50 [6]: 520 nM; IC50 [7]: 1390 nM
CCCCN1C(=O)/C(=N/NC(=S)N[C@@H]2O[C@H](COC(C)=O)[C@@H](OC(C)=O)[C@H](OC(C)=O)[C@H]2OC(C)=O)c2ccccc21	12.5 (≈ 7.58 µg/mL)	100 (≈ 60.7 µg/mL)	377.61	100 (≈ 60.7 µg/mL)	100 (≈ 60.7 µg/mL)	100 (≈ 60.7 µg/mL)	100 (≈ 60.7 µg/mL)	9.89	100 (≈ 60.7 µg/mL)	100 (≈ 60.7 µg/mL)	100 (≈ 60.7 µg/mL)	100 (≈ 60.7 µg/mL)	0.93	12.5 (≈ 7.58 µg/mL)	12.5 (≈ 7.58 µg/mL)	100 (≈ 60.7 µg/mL)	12.5 (≈ 7.58 µg/mL)	
CC(=O)OC[C@H]1O[C@@H](NC(=S)N/N=C2/C(=O)Nc3c2cc(Cl)cc3[N+](=O)[O-])[C@H](OC(C)=O)[C@@H](OC(C)=O)[C@@H]1OC(C)=O	25 (≈ 15.7 µg/mL)	6.25 (≈ 3.94 µg/mL)	389.53	6.25 (≈ 3.94 µg/mL)	25 (≈ 15.7 µg/mL)	6.25 (≈ 3.94 µg/mL)	6.25 (≈ 3.94 µg/mL)	10.57	12.5 (≈ 7.87 µg/mL)	6.25 (≈ 3.94 µg/mL)	3.12 (≈ 1.97 µg/mL)	6.25 (≈ 3.94 µg/mL)	0.35	25 (≈ 15.7 µg/mL)	25 (≈ 15.7 µg/mL)	25 (≈ 15.7 µg/mL)	25 (≈ 15.7 µg/mL)	
CC(=O)OC[C@H]1O[C@@H](NC(=S)N/N=C2/C(=O)Nc3ccc(C(C)C)cc32)[C@H](OC(C)=O)[C@@H](OC(C)=O)[C@@H]1OC(C)=O	25 (≈ 14.8 µg/mL)	12.5 (≈ 7.41 µg/mL)	260.61	12.5 (≈ 7.41 µg/mL)	50 (≈ 29.6 µg/mL)	12.5 (≈ 7.41 µg/mL)	12.5 (≈ 7.41 µg/mL)	5.82	100 (≈ 59.3 µg/mL)	12.5 (≈ 7.41 µg/mL)	25 (≈ 14.8 µg/mL)	100 (≈ 59.3 µg/mL)	1.75	50 (≈ 29.6 µg/mL)	25 (≈ 14.8 µg/mL)	25 (≈ 14.8 µg/mL)	50 (≈ 29.6 µg/mL)	
CCN1C(=O)/C(=N/NC(=S)N[C@@H]2O[C@H](COC(C)=O)[C@@H](OC(C)=O)[C@H](OC(C)=O)[C@H]2OC(C)=O)c2ccccc21	12.5 (≈ 7.23 µg/mL)	100 (≈ 57.9 µg/mL)	358.47	100 (≈ 57.9 µg/mL)	400 (≈ 231 µg/mL)	100 (≈ 57.9 µg/mL)	100 (≈ 57.9 µg/mL)	9.68	25 (≈ 14.5 µg/mL)	100 (≈ 57.9 µg/mL)	100 (≈ 57.9 µg/mL)	400 (≈ 231 µg/mL)	0.75	12.5 (≈ 7.23 µg/mL)	12.5 (≈ 7.23 µg/mL)	200 (≈ 116 µg/mL)	12.5 (≈ 7.23 µg/mL)	
CC(=O)OC[C@H]1O[C@@H](NC(=S)N/N=C2/C(=O)Nc3c(C)cccc32)[C@H](OC(C)=O)[C@@H](OC(C)=O)[C@@H]1OC(C)=O	25 (≈ 14.1 µg/mL)	12.5 (≈ 7.06 µg/mL)	250.63	12.5 (≈ 7.06 µg/mL)	25 (≈ 14.1 µg/mL)	12.5 (≈ 7.06 µg/mL)	12.5 (≈ 7.06 µg/mL)	4.6	100 (≈ 56.5 µg/mL)	12.5 (≈ 7.06 µg/mL)	25 (≈ 14.1 µg/mL)	100 (≈ 56.5 µg/mL)	1.69	25 (≈ 14.1 µg/mL)	25 (≈ 14.1 µg/mL)	25 (≈ 14.1 µg/mL)	25 (≈ 14.1 µg/mL)	
CC(=O)OC[C@H]1O[C@@H](NC(=S)N/N=C2/C(=O)Nc3c2cc(Br)cc3[N+](=O)[O-])[C@H](OC(C)=O)[C@@H](OC(C)=O)[C@@H]1OC(C)=O	25 (≈ 16.9 µg/mL)	6.25 (≈ 4.22 µg/mL)	381.67	6.25 (≈ 4.22 µg/mL)	12.5 (≈ 8.43 µg/mL)	6.25 (≈ 4.22 µg/mL)	6.25 (≈ 4.22 µg/mL)	10.76	12.5 (≈ 8.43 µg/mL)	6.25 (≈ 4.22 µg/mL)	3.12 (≈ 2.1 µg/mL)	12.5 (≈ 8.43 µg/mL)	0.37	25 (≈ 16.9 µg/mL)	25 (≈ 16.9 µg/mL)	6.25 (≈ 4.22 µg/mL)	25 (≈ 16.9 µg/mL)	
CC(=O)OC[C@H]1O[C@@H](NC(=S)N/N=C2/C(=O)Nc3ccc([N+](=O)[O-])cc32)[C@H](OC(C)=O)[C@@H](OC(C)=O)[C@@H]1OC(C)=O	50 (≈ 29.8 µg/mL)	200 (≈ 119 µg/mL)	283.53	200 (≈ 119 µg/mL)	100 (≈ 59.6 µg/mL)	200 (≈ 119 µg/mL)	200 (≈ 119 µg/mL)	6.45	100 (≈ 59.6 µg/mL)	100 (≈ 59.6 µg/mL)	100 (≈ 59.6 µg/mL)	100 (≈ 59.6 µg/mL)	1.89	50 (≈ 29.8 µg/mL)	50 (≈ 29.8 µg/mL)	100 (≈ 59.6 µg/mL)	50 (≈ 29.8 µg/mL)	
CC(=O)OC[C@H]1O[C@@H](NC(=S)N/N=C2/C(=O)Nc3c(Br)cc(Br)cc32)[C@H](OC(C)=O)[C@@H](OC(C)=O)[C@@H]1OC(C)=O	50 (≈ 35.4 µg/mL)	0.78 (≈ 0.553 µg/mL)	397.53	0.78 (≈ 0.553 µg/mL)	6.25 (≈ 4.43 µg/mL)	0.78 (≈ 0.553 µg/mL)	1.56 (≈ 1.11 µg/mL)	10.89	3.12 (≈ 2.21 µg/mL)	1.56 (≈ 1.11 µg/mL)	1.56 (≈ 1.11 µg/mL)	6.25 (≈ 4.43 µg/mL)	0.31	50 (≈ 35.4 µg/mL)	50 (≈ 35.4 µg/mL)	12.5 (≈ 8.85 µg/mL)	50 (≈ 35.4 µg/mL)	IC50 [1]: 4750 nM; IC50 [2]: 8410 nM; IC50 [3]: 2750 nM; IC50 at 3 days [4]: 1530 nM; IC50 [5]: 18400 nM; IC50 [6]: 12800 nM; IC50 [7]: 5530 nM

From ChEMBL document CHEMBL3872214, “Synthesis and evaluation of in vivo antioxidant, in vitro antibacterial, MRSA and antifungal activity of novel substituted isatin N-(2,3,4,6-tetra-O-acetyl-β-d-glucopyranosyl)thiosemicarbazones” (Eur J Med Chem, 2016)
